Experimental data: publication PMC7038136 (2020)

Key:
[1] = system: sulfhydryl modified aptamer 31 (DNA, aptamer) ACGCATAGGGTGCGACCACATACGCCCCATGTATGTCCCTTGGTTGTGCCCTATGCGT; assay: electrochemical impedance spectroscopy; details: K+ (0.5 M KCl), 10 mM K3[Fe(CN)6]/K4[Fe(CN)6], PBS pH 7.0, 30 min
[2] = system: Aptamer 31 (DNA, aptamer) ACGCATAGGGTGCGACCACATACGCCCCATGTATGTCCCTTGGTTGTGCCCTATGCGT; assay: LSPR (OpenSPR), one-to-one kinetic model; details: Na+ (29.2 g NaCl per 500 mL, about 1 M), Mg2+ (0.1 g MgCl2·6H2O per 500 mL, about 1 mM); immobilised compound; amine chip; phosphate buffer pH 7.0; aptamer as analyte, 2.5-40 nM
[3] = system: Aptamer 203 (DNA, aptamer) ACGCATAGGGCAAGACAAACTGCGCCATTCAGCATGCTGTTCGGGTTGGCCTATGCGT; assay: LSPR (OpenSPR), one-to-one kinetic model; details: Na+ (29.2 g NaCl per 500 mL, about 1 M), Mg2+ (0.1 g MgCl2·6H2O per 500 mL, about 1 mM); immobilised compound; amine chip; phosphate buffer pH 7.0; aptamer as analyte, 2.5-40 nM
[4] = system: Aptamer 281 (DNA, aptamer) ACGCATAGGGTGTGCATCAGCAGTACCAACGACGTTGTGGTGTGCTCATCCTATGCGT; assay: LSPR (OpenSPR), one-to-one kinetic model; details: Na+ (29.2 g NaCl per 500 mL, about 1 M), Mg2+ (0.1 g MgCl2·6H2O per 500 mL, about 1 mM); immobilised compound; amine chip; phosphate buffer pH 7.0; aptamer as analyte, 2.5-40 nM
[5] = system: Aptamer 123 (DNA, aptamer) ACGCATAGGGCAACCAGACCAGCCCCATCCCCATGTGACTTCTGTTTGGCCTATGCGT; assay: LSPR (OpenSPR), one-to-one kinetic model; details: Na+ (29.2 g NaCl per 500 mL, about 1 M), Mg2+ (0.1 g MgCl2·6H2O per 500 mL, about 1 mM); immobilised compound; amine chip; phosphate buffer pH 7.0; aptamer as analyte, 2.5-40 nM
[6] = system: Aptamer 31 (DNA, aptamer) ACGCATAGGGTGCGACCACATACGCCCCATGTATGTCCCTTGGTTGTGCCCTATGCGT; assay: AuNP colorimetric assay (A620/A520 ratio > 1.1); details: 1.0 M NaCl added after incubation to aggregate AuNPs; 0.4 μM aptamer, 1 μg/mL DEHP, 30 min; room temperature
[7] = system: Aptamer 281 (DNA, aptamer) ACGCATAGGGTGTGCATCAGCAGTACCAACGACGTTGTGGTGTGCTCATCCTATGCGT; assay: AuNP colorimetric assay (A620/A520 ratio > 1.1); details: 1.0 M NaCl added after incubation to aggregate AuNPs; 0.4 μM aptamer, 1 μg/mL DEHP, 30 min; room temperature
[8] = system: Aptamer 123 (DNA, aptamer) ACGCATAGGGCAACCAGACCAGCCCCATCCCCATGTGACTTCTGTTTGGCCTATGCGT; assay: AuNP colorimetric assay (A620/A520 ratio > 1.1); details: 1.0 M NaCl added after incubation to aggregate AuNPs; 0.4 μM aptamer, 1 μg/mL DEHP, 30 min; room temperature
[9] = system: Aptamer 203 (DNA, aptamer) ACGCATAGGGCAAGACAAACTGCGCCATTCAGCATGCTGTTCGGGTTGGCCTATGCGT; assay: AuNP colorimetric assay (A620/A520 ratio > 1.1); details: 1.0 M NaCl added after incubation to aggregate AuNPs; 0.4 μM aptamer, 1 μg/mL DEHP, 30 min; room temperature

Compound	binding ([1]; only 30.518 pg/mL tested)	other results
CCCCOC(=O)c1ccccc1C(=O)OCc1ccccc1	no	
CCCCOC(=O)c1ccccc1C(=O)OCCCC	no	
CCCCC(CC)COC(=O)c1ccc(OCCCC(=O)O)cc1C(=O)OCC(CC)CCCC (stereo not drawn)		Kd [2]: 2.26 ± 0.06 nM; Kd [3]: 2.68 ± 0.2 nM; Kd [4]: 43 ± 0.7 nM; Kd [5]: 5.33 ± 0.01 nM
CCCCC(CC)COC(=O)c1ccccc1C(=O)OCC(CC)CCCC (stereo not drawn)		binding ([1]; 30.518 pg/mL): yes; binding [6]: yes; binding [7]: yes; binding [8]: yes; binding [9]: yes
COC(=O)c1ccccc1C(=O)OC	no	
CCCCCCCCOC(=O)c1ccccc1C(=O)OCCCCCCCC	no	
CC(C)COC(=O)c1ccccc1C(=O)OCC(C)C	no	
CCCCCCOC(=O)c1ccccc1C(=O)OCCCCCC	no	
O=C(Oc1ccccc1)c1ccccc1C(=O)Oc1ccccc1	no	

Continued, in another order:

binding ([1]; only 30.518 pg/mL tested)	Compound	other results
no	CCOC(=O)c1ccccc1C(=O)OCC	
no	O=C(OC1CCCCC1)c1ccccc1C(=O)OC1CCCCC1	
